Experimental findings from patent US20070003586A1, “Insecticidal coating for use on cellulosic substrates” (priority 2005, published 2007) are described below.

SMILES strings stand for the structures.

A short description of this data set: LD50 (lethal dose 50%) value. As to conditions: rat, in vivo; insecticide as such; subjects typically rats. The method, then:
According to one aspect of the present invention, an insecticidal coating composition for use on cellulosic substrates is provided comprising a polyvinyl acetate emulsion; a vinyl acetate ethylene copolymer emulsion; and an insecticide having an LD50 value of between about 14,500 to about 15,500 mg/kg. By “LD50” value, it is meant “lethal dose 50%” value, which indicates the quantity of a substance, which, when administered to a population of subjects (typically rats), will cause 50% of the subjects to perish.

One may read the LD50 as the dose at which mortality reaches 50%. Consider `CC1(C)[C@H](C(=O)O[C@H](C#N)c2cccc(Oc3ccccc3)c2)[C@@H]1C=C(Br)Br` [deltamethrin, (S)-cyano-3-phenoxybenzyl(1R)-cis-3-(2,2-dibromovinyl)-2,2-dimethylcyclopropane carboxylate], for which the LD50 is around 15000 mg/kg.
